{"source": "patent US20200345662A1", "about": "“MUSCULAR ATROPHY-INDUCING AGENT USING HYPOMETABOLISM-INDUCING SUBSTANCE T1AM, AND USE THEREOF IN TREATING MUSCULAR HYPERTROPHY” (UNIVERSITY INDUSTRY FOUNDATION, YONSEI […] CAMPUS, priority 2015, published 2020)", "key": {"[1]": {"tested_on": "Akt1", "test": "Immunoblotting analysis of p-Akt1 and Akt1 in C2C12 myotubes", "format": "cell-based", "conditions": "T1AM-treated group vs control", "protocol": "(§1) C2C12 myoblasts were purchased from American Type Culture Collection (Rockville, Md., USA) and cultured in a DMEM medium containing 4,500 mg/L glucose supplemented with 10% fetal bovine serum (Hyclone, Logan, Utah, USA) and 1% antibiotics/antimycotics Gibco, Burlington, Ontario, Canada). The myoblasts were stored under conditions of 37° C. and 5% CO2. The myoblasts were grown on a 6-well culture plate for immunoblot analysis and measurement of diameters of myotubes. The myoblasts were maintained in each well for 5 days by replacing the medium with a differentiation medium (DMEM containing 2% horse serum and 1% antibiotics/antimycotics) at about 80% confluent state and induced to be differentiated into myotubes. The medium was replaced with a new medium every two days.\n(§2) The cells were obtained with a RIPA buffer, degraded by repeated suction through a 21 gauge needle, and the transferred to a 1.5 mL microtube. A sample was cultured on ice for 5 minutes and centrifuged at 13,000 rpm at 4° C. for 10 minutes. A supernatant was obtained with whole-cell soluble lysates and the protein concentration was determined through Bradford assay. To detect AMPK, phospho-AMPK (p-AMPK), FoxO1, p-FoxO1, FoxO3, p-FoxO3, Akt1, p-Akt1, S6K, p-S6K, MuRF1, MAFbx, HSP90, HSP72, HSP60, HSP27, αB-crystallin, and GAPDH, a total of 30 μg of proteins was electrophoresed on 8 to 10% SDS-PAGE.\n(§3) The proteins were electrophoretically transferred from the gel to a nitrocellulose membrane. The membrane reacted with a blocking buffer (1X TBS, 0.5% Tween-20 with 5% w/v nonfat dry milk) for 1 hour at room temperature and then washed with 10 mL TBST three times every 10 minutes. Thereafter, the membranes reacted with a primary antibody diluted appropriately with 10 mL TBST (1:500 to 1:10,000) overnight at 4° C. […] An immunocomplex was detected by the ECL system (GE Healthcare, Fairfield, Conn., USA) and the obtained bands were quantified by ImageJ 1.47t software (NIH, MD, USA). […]"}, "[2]": {"tested_on": "HSP60", "test": "Immunoblotting analysis of HSP60 in C2C12 myotubes", "format": "cell-based", "conditions": "T1AM-treated group vs control", "protocol": "as §1\n(§4) The cells were obtained with a RIPA buffer, degraded by repeated suction through a 21 gauge needle, and the transferred to a 1.5 mL microtube. A sample was cultured on ice for 5 minutes and centrifuged at 13,000 rpm at 4° C. for 10 minutes. A supernatant was obtained with whole-cell soluble lysates and the protein concentration was determined through Bradford assay. […]\n(§5) The proteins were electrophoretically transferred from the gel to a nitrocellulose membrane. […] An immunocomplex was detected by the ECL system (GE Healthcare, Fairfield, Conn., USA) and the obtained bands were quantified by ImageJ 1.47t software (NIH, MD, USA). […]"}, "[3]": {"tested_on": "heat shock protein 72 (HSP72)", "test": "Immunoblotting analysis of HSP72 in C2C12 myotubes", "format": "cell-based", "conditions": "T1AM-treated group vs control", "protocol": "as §1, §4, §5"}, "[4]": {"tested_on": "FoxO1", "test": "Immunoblotting analysis of p-FoxO1 and FoxO1 in C2C12 myotubes", "format": "cell-based", "conditions": "T1AM-treated group vs control", "protocol": "as §1, §2\nas §3, with “minutes.” for “minutes. Thereafter, the membranes reacted with a primary antibody diluted appropriately with 10 mL TBST (1:500 to 1:10,000) overnight at 4° C.”\n(§6) The cells on each 6-well plate were washed three times with 1× PBS and fixed with 4% paraformaldehyde for 30 minutes at room temperature. […] Fluorescent-labeled cells were detected with a Carl Zeiss LSM750 confocal microscope (Jena, Germany)."}, "[5]": {"tested_on": "FoxO3", "test": "Immunoblotting analysis of p-FoxO3 and FoxO3 in C2C12 myotubes", "format": "cell-based", "conditions": "T1AM-treated group vs control", "protocol": "as §1, §2\nas §3, with “minutes.” for “minutes. Thereafter, the membranes reacted with a primary antibody diluted appropriately with 10 mL TBST (1:500 to 1:10,000) overnight at 4° C.”\nas §6"}, "[6]": {"tested_on": "26S proteasome", "test": "Chymotrypsin-like activity of 26S proteasome, cell-based luminescence assay", "conditions": "C2C12 myotubes, T1AM-treated group vs control", "protocol": "Two groups of myotubes were trypsinized and then washed with a fresh differentiation medium. Among three determinants of proteasome activities (trypsin-, chemotrypsin- and caspase-like activities), the chemotrypsin-like activity is regarded as representative of the protease capacity of the proteasome. The chemotrypsin-like activity was determined according to the manufacturer's protocol using a Promega Proteasome-Glo cell-based luminescence assay kit (Promega, Madison, Wis., USA) by approximately 7,500 cells measured by a cell counter (Biorad, Hercules, Calif., USA) in 50 μl of the differentiation medium. To confirm the specificity of the analysis, a partial sample containing the same number of cells was pretreated with a proteasome inhibitor, epoxomicin, at a concentration of 10 μM for 30 minutes. The chemotrypsin-like activity was measured by the same process and the result was used as a background signal for analysis. The luminescence was measured with a GloMax 20/20 Luminometer (Promega)."}, "[7]": {"tested_on": "MAFbx", "test": "Immunoblotting analysis of MAFbx in C2C12 myotubes", "format": "cell-based", "conditions": "T1AM treatment vs control", "protocol": "as §1, §4, §5"}, "[8]": {"tested_on": "C2C12 myotubes", "test": "Measurement of diameter (size) of C2C12 myotubes", "format": "cell-based", "conditions": "75 μM of T1AM for 6 hours", "protocol": "as §1\nTo verify the effect of T1AM on the size of C2C12 myotubes, the cells were fixed with 4% paraformaldehyde and photographed at 200× magnification on an Axiovert 200 optical microscope. For analysis, the cells were divided into 9 fractions in order to randomly select the cells. The diameter of each myotube was measured using Image J software (NIH, Frederick, Md., USA).\nTo determine whether T1AM induced muscular atrophy in C2C12 myotubes, cells were photographed under a phase contrast microscope (FIG. 1A) and the diameter was measured at 200× magnification (FIG. 1B)."}, "[9]": {"tested_on": "MuRF1", "test": "Immunoblotting analysis of MuRF1 in C2C12 myotubes", "format": "cell-based", "conditions": "T1AM-treated group vs control", "protocol": "as §1, §4, §5"}, "[10]": {"tested_on": "αB-crystallin", "test": "Immunoblotting analysis of αB-crystallin in C2C12 myotubes", "format": "cell-based", "conditions": "T1AM-treated group vs control", "protocol": "as §1, §4, §5"}, "[11]": {"tested_on": "AMPK", "test": "Immunoblotting analysis of p-AMPK and AMPK in C2C12 myotubes", "format": "cell-based", "conditions": "T1AM-treated group vs control", "protocol": "as §1, §2, §3"}, "[12]": {"tested_on": "S6K", "test": "Immunoblotting analysis of p-S6K and S6K in C2C12 myotubes", "format": "cell-based", "protocol": "as §1, §4, §5"}}}
{"smiles": "NCCc1ccc(Oc2ccc(O)cc2)c(I)c1", "note": "[T1AM, 3-iodothyronamine]", "values": [{"measurement": "expression ratio of p-Akt1/Akt1, lower than control", "setting": "[1]", "value": 0.45, "unit": "times"}, {"measurement": "non-phosphorylation level of Akt1 between the two groups", "setting": "[1]", "value": "similar"}, {"measurement": "phosphorylation level of Akt1 compared to the control", "setting": "[1]", "value": "significantly down-regulated"}, {"measurement": "difference in HSP60 expression between the two groups", "setting": "[2]", "value": "not statistically significant"}, {"measurement": "expression level of HSP72, down-regulated compared to the control", "setting": "[3]", "value": 0.89, "unit": "times"}, {"measurement": "expression ratio of p-FoxO1/FoxO1, lowered", "setting": "[4]", "value": 0.66, "unit": "times"}, {"measurement": "phosphorylation level of FoxO1 between the two groups", "setting": "[4]", "value": "similar"}, {"measurement": "total expression of FoxO1, higher than control", "setting": "[4]", "value": 2.5, "unit": "times"}, {"measurement": "expression ratio of p-FoxO3/FoxO3, lower than control", "setting": "[5]", "value": 0.39, "unit": "times"}, {"measurement": "p-FoxO3 level, lowered", "setting": "[5]", "value": 0.58, "unit": "times"}, {"measurement": "total expression of FoxO3 between T1AM-treated group and control", "setting": "[5]", "value": "not different"}, {"measurement": "chymotrypsin-like activity of proteasome, higher than control", "setting": "[6]", "value": 1.5, "unit": "times"}, {"measurement": "expression of MAFbx", "setting": "[7]", "value": "not affected"}, {"measurement": "size of myotube, decrease compared to vehicle control", "setting": "[8]", "value": 0.13, "unit": "times"}, {"measurement": "expression of MuRF1, higher than control", "setting": "[9]", "value": 1.8, "unit": "times"}, {"measurement": "expression level of αB-crystallin, down-regulated compared to the control", "setting": "[10]", "value": 0.63, "unit": "times"}, {"measurement": "AMPK phosphorylation, increase compared to the control", "setting": "[11]", "value": 2.7, "unit": "times"}, {"measurement": "expression ratio of p-AMPK/AMPK, higher than control", "setting": "[11]", "value": 2.0, "unit": "times"}, {"measurement": "total expression levels of AMPK, between the two groups", "setting": "[11]", "value": "similar"}, {"measurement": "p-S6K level", "setting": "[12]; T1AM treatment vs control", "value": "lowered"}, {"measurement": "expression ratio of p-S6K/S6K, lower than control", "setting": "[12]; T1AM-treated group vs control", "value": 0.53, "unit": "times"}]}
